In US20040167192A1, “Methods of treating conditions associated with an Edg-7 receptor” (priority 2003, published 2004):

Legend:
Edg-4 = biological target: T1, Edg-4 (Homo sapiens, UniProt Q9HBW0); test: Intracellular calcium mobilization (FLIPR) in HTC cells expressing Edg-4; type: cell-based
T1 construct: expressed in transfected cells; host or cells: HTC rat hepatoma cells

human Edg 7 receptors = biological target: T2, human Edg 7 receptors (Homo sapiens, UniProt Q9UBY5); test: Intracellular calcium mobilization (FLIPR) in HTC cells expressing Edg-7; type: cell-based
T2 construct: expressed in transfected cells; host or cells: HTC rat hepatoma cells
T2 sequence (Q9UBY5 1-353): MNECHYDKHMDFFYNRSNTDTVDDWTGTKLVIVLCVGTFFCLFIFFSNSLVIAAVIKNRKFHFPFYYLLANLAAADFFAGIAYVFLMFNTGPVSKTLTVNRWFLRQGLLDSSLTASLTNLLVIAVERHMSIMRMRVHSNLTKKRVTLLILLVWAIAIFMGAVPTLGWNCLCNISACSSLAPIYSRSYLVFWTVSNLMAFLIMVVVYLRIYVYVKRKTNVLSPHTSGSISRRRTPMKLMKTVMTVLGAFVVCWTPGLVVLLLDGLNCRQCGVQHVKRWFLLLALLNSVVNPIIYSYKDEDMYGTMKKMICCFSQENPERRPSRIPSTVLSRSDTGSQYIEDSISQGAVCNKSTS
Method: (§1) The compounds were tested in HTC cells expressing human Edg 7 receptors. […] The compounds are tested in this recombinant system first, and subsequently tested in cell lines expressing Edg-7 (in addition to other Edg receptors).
as §1, with “receptors). […] The calcium mobilization assays were conducted as described in Section 6.6 (Example 6).” for “receptors).”
LPA receptors such as Edg-7, couple to calcium effector pathways, and result in increases in intracellular calcium following receptor activation (An, 1998, J. Cell. Biochem Supp. 30-31:147-157). This biological response lends itself to a very efficient, high-throughput screen using a Fluorescence Imaging Plate Reader (FLIPR; Molecular Devices, Sunnyvale, Calif.). The FLIPR system is a real-time, cell-based assay system with continuous fluorescence detection using a cooled CCD camera. The FLIPR system was used to developing an Edg-7 receptor screen. Rat hepatoma cells stably expressing Edg-7 receptor were plated on 384-well plates and loaded with a calcium dye loading kit (Molecular Devices, Sunnyvale, Calif.) for 1 hour at room temperature. Cells were then placed on the FLIPR^384 (Molecular Devices, Sunnyvale, Calif.) and excited by an argon laser at 488 nm. The data for the entire 384-well plate was updated every second. An integrated robotic pipettor allowed for simultaneous compound addition into each individual well in the plate.

Edg-8 = biological target: T3, Edg-8 (Homo sapiens, UniProt Q9H228); test: Intracellular calcium mobilization (FLIPR) in HTC cells expressing Edg-8; type: cell-based
T3 construct: expressed in transfected cells; host or cells: HTC rat hepatoma cells

Edg-2 = biological target: T4, Edg-2 (Homo sapiens, UniProt Q92633); test: Intracellular calcium mobilization (FLIPR) in HTC cells expressing Edg-2; type: cell-based
T4 construct: expressed in transfected cells; host or cells: HTC rat hepatoma cells

Edg-3 = biological target: T5, Edg-3 (Homo sapiens, UniProt Q99500); test: Intracellular calcium mobilization (FLIPR) in HTC cells expressing Edg-3; type: cell-based
T5 construct: expressed in transfected cells; host or cells: HTC rat hepatoma cells

Edg-1 = biological target: T6, Edg-1 (Homo sapiens, UniProt P21453); test: Intracellular calcium mobilization (FLIPR) in HTC cells expressing Edg-1; type: cell-based
T6 construct: expressed in transfected cells; host or cells: HTC rat hepatoma cells

Edg-6 = biological target: T7, Edg-6 (Homo sapiens, UniProt O95977); test: Intracellular calcium mobilization (FLIPR) in HTC cells expressing Edg-6; type: cell-based
T7 construct: expressed in transfected cells; host or cells: HTC rat hepatoma cells
T7 sequence (O95977 1-384): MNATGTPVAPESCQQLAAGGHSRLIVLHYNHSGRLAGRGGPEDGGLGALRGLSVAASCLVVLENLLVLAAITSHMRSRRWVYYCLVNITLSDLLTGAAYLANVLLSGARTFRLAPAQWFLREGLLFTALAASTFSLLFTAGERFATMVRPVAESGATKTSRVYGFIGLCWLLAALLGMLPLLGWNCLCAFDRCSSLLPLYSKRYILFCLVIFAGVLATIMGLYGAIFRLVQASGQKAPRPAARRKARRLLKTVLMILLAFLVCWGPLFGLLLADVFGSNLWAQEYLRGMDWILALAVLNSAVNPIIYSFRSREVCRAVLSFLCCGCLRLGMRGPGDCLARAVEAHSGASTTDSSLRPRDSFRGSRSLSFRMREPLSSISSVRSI

Edg-5 = biological target: T8, Edg-5 (Homo sapiens, UniProt O95136); test: Intracellular calcium mobilization (FLIPR) in HTC cells expressing Edg-5; type: cell-based
T8 construct: expressed in transfected cells; host or cells: HTC rat hepatoma cells

untransfected HTC cells = test: Intracellular calcium mobilization (FLIPR) in untransfected HTC cells; type: cell-based, rat; conditions: concentrations as high as 25 μM
[1] = concentrations as high as 20 μM
[2] = HTC cells expressing human Edg 7 receptors
[3] = concentrations as high as 25 μM

T6 sequence (P21453 whole entry): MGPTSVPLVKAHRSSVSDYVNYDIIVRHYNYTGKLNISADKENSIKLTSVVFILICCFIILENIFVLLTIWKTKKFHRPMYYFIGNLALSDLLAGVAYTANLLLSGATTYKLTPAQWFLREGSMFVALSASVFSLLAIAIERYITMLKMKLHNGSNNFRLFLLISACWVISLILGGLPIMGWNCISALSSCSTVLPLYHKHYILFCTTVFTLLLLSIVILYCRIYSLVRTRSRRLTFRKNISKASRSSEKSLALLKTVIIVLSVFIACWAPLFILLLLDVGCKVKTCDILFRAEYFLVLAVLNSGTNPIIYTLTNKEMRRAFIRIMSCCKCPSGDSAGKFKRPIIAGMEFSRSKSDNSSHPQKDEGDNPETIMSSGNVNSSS
T5 sequence (Q99500 whole entry): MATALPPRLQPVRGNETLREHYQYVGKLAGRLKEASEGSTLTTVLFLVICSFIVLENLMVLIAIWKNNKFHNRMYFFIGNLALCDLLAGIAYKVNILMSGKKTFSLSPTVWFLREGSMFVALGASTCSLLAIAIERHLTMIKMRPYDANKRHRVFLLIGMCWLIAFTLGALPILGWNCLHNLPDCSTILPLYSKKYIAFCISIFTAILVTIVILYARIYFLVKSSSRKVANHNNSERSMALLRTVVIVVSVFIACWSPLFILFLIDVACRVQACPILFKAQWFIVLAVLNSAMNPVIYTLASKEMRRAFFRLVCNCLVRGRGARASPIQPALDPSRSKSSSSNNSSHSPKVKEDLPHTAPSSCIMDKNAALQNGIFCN
T4 sequence (Q92633 whole entry): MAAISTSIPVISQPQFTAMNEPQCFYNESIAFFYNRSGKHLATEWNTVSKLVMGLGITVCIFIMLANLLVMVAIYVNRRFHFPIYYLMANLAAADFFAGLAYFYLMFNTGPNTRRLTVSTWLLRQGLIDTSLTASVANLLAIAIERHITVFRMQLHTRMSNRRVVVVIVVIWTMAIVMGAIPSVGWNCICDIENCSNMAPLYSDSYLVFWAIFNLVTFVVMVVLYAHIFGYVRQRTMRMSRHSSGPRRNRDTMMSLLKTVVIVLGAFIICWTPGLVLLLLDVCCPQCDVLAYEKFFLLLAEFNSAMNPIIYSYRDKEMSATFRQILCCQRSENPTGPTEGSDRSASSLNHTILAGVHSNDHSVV
T8 sequence (O95136 whole entry): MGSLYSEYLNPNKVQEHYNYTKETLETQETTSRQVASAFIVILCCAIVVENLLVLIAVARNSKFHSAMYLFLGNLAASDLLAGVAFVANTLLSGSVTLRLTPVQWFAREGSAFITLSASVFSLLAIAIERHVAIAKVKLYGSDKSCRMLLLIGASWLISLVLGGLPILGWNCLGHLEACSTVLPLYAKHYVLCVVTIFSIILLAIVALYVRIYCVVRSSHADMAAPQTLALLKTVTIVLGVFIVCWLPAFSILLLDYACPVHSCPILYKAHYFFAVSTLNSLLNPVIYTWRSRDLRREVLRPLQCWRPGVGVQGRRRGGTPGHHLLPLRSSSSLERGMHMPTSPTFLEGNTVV
T1 sequence (Q9HBW0 whole entry): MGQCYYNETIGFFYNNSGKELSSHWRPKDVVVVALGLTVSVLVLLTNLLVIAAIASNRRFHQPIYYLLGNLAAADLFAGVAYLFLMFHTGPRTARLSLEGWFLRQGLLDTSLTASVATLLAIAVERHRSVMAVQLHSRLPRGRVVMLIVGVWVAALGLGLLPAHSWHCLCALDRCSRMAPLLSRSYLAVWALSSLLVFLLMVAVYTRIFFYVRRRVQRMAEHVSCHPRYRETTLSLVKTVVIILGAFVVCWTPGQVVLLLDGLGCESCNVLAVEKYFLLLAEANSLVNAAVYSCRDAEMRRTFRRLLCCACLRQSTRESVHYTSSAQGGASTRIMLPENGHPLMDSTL
T3 sequence (Q9H228 whole entry): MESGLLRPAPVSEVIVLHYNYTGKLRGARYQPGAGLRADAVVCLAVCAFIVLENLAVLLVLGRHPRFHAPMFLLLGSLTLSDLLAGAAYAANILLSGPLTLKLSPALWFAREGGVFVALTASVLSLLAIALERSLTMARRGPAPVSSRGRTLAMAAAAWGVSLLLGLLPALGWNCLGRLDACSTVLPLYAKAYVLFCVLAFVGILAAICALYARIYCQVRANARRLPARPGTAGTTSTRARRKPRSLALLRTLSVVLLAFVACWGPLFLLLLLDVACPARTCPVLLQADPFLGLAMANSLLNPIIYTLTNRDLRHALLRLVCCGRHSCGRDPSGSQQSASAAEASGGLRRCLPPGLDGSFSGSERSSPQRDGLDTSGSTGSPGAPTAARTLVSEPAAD

| Compound | inhibition of LPA-stimulated calcium increases (Edg-4; [1]) | inhibition of Edg-7 stimulated LPA responses (human Edg 7 receptors; [2]) | selectivity for Edg 7 (human Edg 7 receptors; tested on HTC cells expressing Edg-7) | inhibition of S1P-stimulated calcium increases (Edg-8; [1]) | inhibition of LPA-stimulated calcium increases (Edg-2; [1]) | inhibition of S1P-stimulated calcium increases (Edg-3; [1]) | inhibition of S1P-stimulated calcium increases (Edg-1; [1]) | inhibition of S1P-stimulated calcium increases (Edg-6; [1]) | inhibition of S1P-stimulated calcium increases (Edg-5; [1]) | stimulation of calcium increases (untransfected HTC cells) | stimulation of calcium increases (Edg-4; [3]) | activation of the Edg-7 receptor (human Edg 7 receptors; [2]) | stimulation of calcium increases (Edg-8; [3]) | melting point [°C] | stimulation of calcium increases (Edg-2; [3]) | stimulation of calcium increases (Edg-3; [3]) | stimulation of calcium increases (Edg-1; [3]) | stimulation of calcium increases (Edg-6; [3]) | stimulation of calcium increases (Edg-5; [3]) |
| --- | --- | --- | --- | --- | --- | --- | --- | --- | --- | --- | --- | --- | --- | --- | --- | --- | --- | --- | --- |
| Cc1ccc(S(=O)(=O)N=C2NC(=O)/C(=C3/C(=O)Nc4ccccc43)S2)cc1 [Compound 105, 4-Methyl-N-[4-oxo-5-(2-oxo1,2-dihydroindol-3-ylidene)thiazolidin-2-ylidene]-benzenesulfonamide] | did not inhibit | demonstrate inhibition | exhibited selectivity | did not inhibit | did not inhibit | did not inhibit | did not inhibit | did not inhibit | did not inhibit |  |  |  |  |  |  |  |  |  |  |
| O=C(O)COc1ccc(Br)cc1/C=C1\S/C(=N\c2ccc(Cl)cc2)NC1=O [Compound 107, 4-Bromo-2-[2-(4-chlorophenylamino)-4-oxothiazolidin-5-ylidenemethyl]phenoxyacetic acid] |  | demonstrate inhibition |  |  |  |  |  |  |  |  |  |  |  |  |  |  |  |  |  |
| CCCCCC(CCCCC)=N/N=C1\NC(=O)C(CC(=O)O)S1 (centres unmarked) [Compound 127, 4-Oxo-2-[(1-pentylhexylidene)hydrazono]thiazolidin-5-ylacetic acid] |  |  |  |  |  |  |  |  |  | did not stimulate calcium increases | did not stimulate calcium increases | specifically activate | did not stimulate calcium increases | 134 to 135 | did not stimulate calcium increases | did not stimulate calcium increases | did not stimulate calcium increases | did not stimulate calcium increases | did not stimulate calcium increases |
